Values joined by “and” are separate entries in the source; they are usually repeats but may differ in a detail not shown here. Equal entries are not always repeated. Numbers after ± are expanded uncertainties.

Experiment in one series: not given
The settings on record: Crystal 1; DTA.
As to `O=C(O)CCCCCC(=O)O` [1,7-heptanedioic acid], the Triple point temperature stood at 368.2 ± 3.2 K.

In the case of `O=C(O)CCCCCCCCCCCCCCC(=O)O` [hexadecanedioic acid], the Triple point temperature came to 395.4 ± 1.3 K.

As to `O=C(O)CCCCCCCCCCCCC(=O)O` [1,12-dodecanedicarboxylic acid], the Triple point temperature worked out at 397.3 ± 0.5 K.

On to `O=C(O)CCCCCCCCC(=O)O` [1,10-decanedioic acid], for which the Triple point temperature came out at 403.9 ± 0.9 K.

In the case of `O=C(O)CCCCCCCC(=O)O` [1,9-nonanedioic acid], the Triple point temperature was found to be 372.4 ± 2.4 K.

For `O=C(O)CCCCCCCCCC(=O)O` [1,11-undecanedioic acid], the Triple point temperature is 380.1 ± 1.6 K.

For the compound `O=C(O)CCCCCCCCCCCC(=O)O` [tridecanedioic acid], the Triple point temperature was 386.3 ± 2.8 K.

Consider `O=C(O)CCCCCCCCCCC(=O)O` [1,12-dodecanedioic acid], for which the Triple point temperature was 400.3 ± 1.3 K.

As for `O=C(O)CCC(=O)O` [butanedioic acid], the Triple point temperature amounted to 455.2 ± 2.4 K.

Turning to `O=C(O)CCCC(=O)O` [1,5-pentanedioic acid], the Triple point temperature was determined as 363.9 ± 13 K.

On to `O=C(O)CCCCCCC(=O)O` [1,8-octanedioic acid], for which the Triple point temperature amounted to 413.2 ± 0.5 K.

Turning to `O=C(O)CCCCC(=O)O` [1,6-hexanedioic acid], the Triple point temperature turned out to be 419 ± 2.8 K.

Still in this series, the particulars now being: Crystal 2; DTA.
With `O=C(O)CCCCCC(=O)O` [1,7-heptanedioic acid], the Triple point temperature was found to be 366.3 ± 2.8 K.

On to `O=C(O)CCCCCCCCC(=O)O` [1,10-decanedioic acid], for which the Triple point temperature was determined as 370.3 ± 0.5 K.

On to `O=C(O)CCCCCCCC(=O)O` [1,9-nonanedioic acid], for which the Triple point temperature worked out at 339.8 ± 8.4 K.

In the case of `O=C(O)CCCCCCCCCC(=O)O` [1,11-undecanedioic acid], the Triple point temperature stood at 355.3 ± 0.9 K.

As to `O=C(O)CCCCCCCCCCC(=O)O` [1,12-dodecanedioic acid], the Triple point temperature is recorded as 387 ± 1 K.

Consider `O=C(O)CCCC(=O)O` [1,5-pentanedioic acid], for which the Triple point temperature was 340.5 ± 3.6 K.

As to `O=C(O)CCCCCCC(=O)O` [1,8-octanedioic acid], the Triple point temperature is on record as 403.6 ± 0.5 K.

The series is the same for the next values; noted with them: Crystal 3; DTA.
With `O=C(O)CCCCCC(=O)O` [1,7-heptanedioic acid], the Triple point temperature is given as 337.7 ± 3.2 K.

With `O=C(O)CCCCCCCC(=O)O` [1,9-nonanedioic acid], the Triple point temperature was determined as 330.6 ± 0.5 K.

As for `O=C(O)CCCCCCCCCCC(=O)O` [1,12-dodecanedioic acid], the Triple point temperature was determined as 359.5 ± 9.6 K.

As for `O=C(O)CCCCCCC(=O)O` [1,8-octanedioic acid], the Triple point temperature is given as 355.9 ± 1.6 K.

The nature of the next series: Molar enthalpy of transition or fusion. Conditions: Crystal 1; DSC.
With `O=C(O)CCCCCC(=O)O` [1,7-heptanedioic acid], the “Molar enthalpy of transition or fusion” value was determined as 23.7 ± 2.5 kJ/mol.

`O=C(O)CCCCCCCCCCCCCCC(=O)O` [hexadecanedioic acid]: the “Molar enthalpy of transition or fusion” value stood at 52.2 ± 1.1 kJ/mol.

Turning to `O=C(O)CCCCCCCCCCCCC(=O)O` [1,12-dodecanedicarboxylic acid], the “Molar enthalpy of transition or fusion” value was determined as 56.5 ± 3.4 kJ/mol.

Take `O=C(O)CCCCCCCCC(=O)O` [1,10-decanedioic acid]: the “Molar enthalpy of transition or fusion” value is 46.6 ± 10 kJ/mol.

`O=C(O)CCCCCCCC(=O)O` [1,9-nonanedioic acid]: the “Molar enthalpy of transition or fusion” value was found to be 29.7 ± 1.9 kJ/mol.

For the compound `O=C(O)CCCCCCCCCC(=O)O` [1,11-undecanedioic acid], the “Molar enthalpy of transition or fusion” value stood at 41.2 ± 3.3 kJ/mol.

For the compound `O=C(O)CCCCCCCCCCCC(=O)O` [tridecanedioic acid], the “Molar enthalpy of transition or fusion” value was determined as 49.4 ± 1 kJ/mol.

Turning to `O=C(O)CCCCCCCCCCC(=O)O` [1,12-dodecanedioic acid], the “Molar enthalpy of transition or fusion” value worked out at 49.8 ± 2.4 kJ/mol.

In the case of `O=C(O)CCC(=O)O` [butanedioic acid], the “Molar enthalpy of transition or fusion” value is 34 ± 1 kJ/mol.

With `O=C(O)CCCC(=O)O` [1,5-pentanedioic acid], the “Molar enthalpy of transition or fusion” value is 18.8 ± 0.6 kJ/mol.

In the case of `O=C(O)CCCCCCC(=O)O` [1,8-octanedioic acid], the “Molar enthalpy of transition or fusion” value turned out to be 30.7 ± 1 kJ/mol.

In the case of `O=C(O)CCCCC(=O)O` [1,6-hexanedioic acid], the “Molar enthalpy of transition or fusion” value was found to be 33.7 ± 1 kJ/mol.

Still in this series, the particulars now being: Crystal 2; DSC.
Take `O=C(O)CCCCCCCCC(=O)O` [1,10-decanedioic acid]: the “Molar enthalpy of transition or fusion” value was 0.4 ± 0.2 kJ/mol.

Consider `O=C(O)CCCCCCCC(=O)O` [1,9-nonanedioic acid], for which the “Molar enthalpy of transition or fusion” value is 0.7 ± 0.6 kJ/mol.

For `O=C(O)CCCCCCCCCC(=O)O` [1,11-undecanedioic acid], the “Molar enthalpy of transition or fusion” value is 1.6 ± 1 kJ/mol.

`O=C(O)CCCCCCCCCCC(=O)O` [1,12-dodecanedioic acid]: the “Molar enthalpy of transition or fusion” value is -0.1 ± 0.4 kJ/mol.

As to `O=C(O)CCCC(=O)O` [1,5-pentanedioic acid], the “Molar enthalpy of transition or fusion” value was 2.3 ± 0.6 kJ/mol.

As to `O=C(O)CCCCCCC(=O)O` [1,8-octanedioic acid], the “Molar enthalpy of transition or fusion” value was found to be 9.1 ± 0.3 kJ/mol.

Staying with this series, now noted: Crystal 3; DSC.
With `O=C(O)CCCCCC(=O)O` [1,7-heptanedioic acid], the “Molar enthalpy of transition or fusion” value is 1.5 ± 0.6 kJ/mol.

For `O=C(O)CCCCCCCC(=O)O` [1,9-nonanedioic acid], the “Molar enthalpy of transition or fusion” value is 0.01 kJ/mol.

In the case of `O=C(O)CCCCCCCCCCC(=O)O` [1,12-dodecanedioic acid], the “Molar enthalpy of transition or fusion” value is 0.06 ± 0.15 kJ/mol.

Turning to `O=C(O)CCCCCCC(=O)O` [1,8-octanedioic acid], the “Molar enthalpy of transition or fusion” value came out at 2 ± 1.6 kJ/mol.

Another series is described as follows: molar enthalpy of vaporization or sublimation. Conditions: 298.15 K; Crystal 1; DSC.
With `O=C(O)CCCCCC(=O)O` [1,7-heptanedioic acid], the molar enthalpy stood at 133 ± 7.1 kJ/mol.

Take `O=C(O)CCCCCCCCCCCCC(=O)O` [1,12-dodecanedicarboxylic acid]: the molar enthalpy was 175 ± 9.3 kJ/mol.

As for `O=C(O)CCCCCCCC(=O)O` [1,9-nonanedioic acid], the molar enthalpy was determined as 144 ± 7.7 kJ/mol.

Consider `O=C(O)CCCCCCCCCC(=O)O` [1,11-undecanedioic acid], for which the molar enthalpy is 164 kJ/mol and 165 kJ/mol.

Turning to `O=C(O)CCCCCCCCCCC(=O)O` [1,12-dodecanedioic acid], the molar enthalpy turned out to be 171 ± 9.1 kJ/mol.

Regarding `O=C(O)CCCC(=O)O` [1,5-pentanedioic acid], the molar enthalpy was determined as 119 ± 6.4 kJ/mol.

Regarding `O=C(O)CCCCCCC(=O)O` [1,8-octanedioic acid], the molar enthalpy was determined as 151 ± 8.1 kJ/mol.

The record behind these values is the NIST ThermoML archive (doi:10.1016/j.jct.2004.12.011).
